SMILES	melting point [°C]
CC(=O)N1CCC(C(=O)c2ccc(N3CCCCC3)cc2)CC1	122 to 125
OC1CSC(Oc2ccc(-c3ccc(N4CCCCC4)cc3)nc2)C(O)C1O (stereo unspecified)	221
COc1cc(OC)nc(Sc2sccc2NC(=O)C(F)(F)F)n1	88 to 90
NC(=O)c1sc2ccc(C(F)(F)F)cc2c1O	196 to 197
O=C(NCCCCCC1CCSS1)c1ccccc1 (stereo unspecified)	58 to 59
Nc1cc(Cl)nc(SC/C=C/C(=O)N2CCCCC2)n1	159 to 163
CCOC(=O)[C@H]1CC(OS(=O)(=O)c2ccc(C)cc2)CN1S(=O)(=O)c1ccc(C)cc1 (stereo partly specified)	93
COC(=O)Cc1sc(Sc2cc(C(=O)OC)nc(SC)n2)nc1C	131 to 133
C=C(C)C(=O)NCCC(=O)Nc1cc(Cl)c(C)c(Cl)c1O	150 to 152
N#Cc1nn(-c2c(Cl)cc(C(F)(F)F)cc2Cl)cc1C1CC1(Cl)Cl (stereo unspecified)	123 to 126
N#Cc1nn(-c2c(Cl)cc(C(F)(F)F)cc2Cl)c(N)c1-c1ccc2c(c1)OCO2	222
CN(CC(=O)C(CCCCN)NC(=O)c1ccccc1)C(=O)N1CCCC1C(=O)O (stereo unspecified)	130 to 133
COc1cc([C@H]2CC[C@H](c3cc(OC)c(OC)c(OC)c3)S2)cc(OC)c1OC (relative stereo)	133 to 134
Nc1ccc(OC(F)(F)F)cc1C=O	42 to 44
COc1cc(OC)c2c(=O)[nH]c(-c3cc(C)c(OCCCCN4CCCC4)c(C)c3)nc2c1	180 to 181
Cc1ccc(N2C(=O)C(O)=C(C(=O)c3ccc(C(C)C)cc3)C2c2ccc(-n3cncn3)cc2)nn1 (stereo unspecified)	284
CN1CCN(c2cc3ccccc3cn2)CC1	93 to 94
COC(=O)C(NC(CO)c1ccccc1)C1CC2CCC(C1)N2 (stereo unspecified)	124
CS(=O)(=O)c1ccc2c(c1)[nH]c(=O)c(=O)n2C1CCCCC1	> 300
CCCCCCCCCCCCCCCCCCOc1cc(OCCCCCCOc2ccc(OCc3ccccc3)cc2)cc(C(=O)OCc2ccccc2)c1	60 to 62
CCCCC(=O)N[C@H]1CC[C@H](CCN2CCC(c3cccc4c3CCO4)CC2)CC1	186
CN=C(NC#N)C1=CC(C)(COC)Oc2ccc([N+](=O)[O-])cc21 (stereo unspecified)	121 to 125

SMILES	melting point [°C]
CC(C)(C)c1cc(CCc2ccccc2NC(=O)NCC2CCCCC2)cc(C(C)(C)C)c1O	208 to 210
CC1(C)CC(=O)C(Cl)(Cl)C(Cl)C1Br (stereo unspecified)	117
O=C(O)C(Cl)CCCCCCCCCCCCC(Cl)C(=O)O (stereo unspecified)	71 to 72
CCNC(=NC#N)Nc1ccc(C2=NNC(=O)CC2C)cc1 (stereo unspecified)	208 to 209
CC(=O)NC[C@H]1CN(c2ccc(N3C[C@H]4CN(C(C)=O)C[C@H]4C3)c(F)c2)C(=O)O1	168 to 170
O=S(=O)(O)NCCC(F)(F)F	> 250
CCC(CC)n1nc(C)c2c(O)nc(C)nc21	202 to 203
COc1ccc(Cc2cnc(NCCSCc3nccs3)[nH]c2=O)cn1	95 to 97
Cc1cc(CC(=O)O)cc(Cc2nc3c(F)c(F)cc(F)c3s2)c1	127 to 129
COc1ccc2c(C#N)c(-c3ncc(S(=O)(=O)NC(CF)CF)cn3)n(C3CCC3)c2n1	229 to 230
O=C1[C@H](O)CCN1CC#CCN1CCCC1	81 to 85
CSc1ccc(COC(=O)N2CCN(CC3(C)Cn4cc([N+](=O)[O-])nc4O3)CC2)cc1 (stereo unspecified)	118 to 120
COc1ccc2c3c1OC1C(=O)CC(C)C4C(C2)N(C#N)CCC314 (stereo unspecified)	237 to 241
COC(=O)C(ON1C(C)(C)CCCC1(C)C)c1ccccc1 (stereo unspecified)	83 to 86
CCOC(=O)c1cc(-c2ncc(Cl)cc2F)nn1C	117 to 118
CCOC(=O)C(Cl)=NNc1ccc(Cl)cc1	145 to 148
COCCCS(=O)(=O)NC(=O)/C=C/c1cc(OCC2CC2)nn1Cc1ccc(C(F)(F)F)cc1Cl	137 to 138
CC1(C)Oc2c(cc(Cl)c3oc(C(=O)O)cc(=O)c23)-c2ccc(S(=O)(=O)O)cc21	257 to 259
O=c1[nH]c2cc(F)ccc2c(=O)n1CCCN1CC=C(c2ccc(Cl)cc2)CC1	197 to 198
COC(=O)NS(=O)(=O)Nc1c(C(C)C)cccc1C(C)C	152 to 155
CCCCCCCCCCCC(=O)OC1CC(c2ccccc2)N(O)C(c2ccccc2)C1 (stereo unspecified)	89 to 90

Continued, values first:

melting point [°C]	SMILES
109 to 113	COc1ccc(-c2nnc(C)nc2-c2ccc(OC)cc2)cc1
210	COC(=S)c1nc(-c2ccccc2)c(N)nc1N
108 to 110	C=C(c1cc(F)ccc1OCc1c(Cl)cccc1Cl)n1ccnc1
136 to 138	Cc1cc(C)c(Nc2nc(C)ccc2S(=O)(=O)c2ccc(OCc3cccc(F)c3F)cc2)c(C)c1
219 to 222	O=c1ccc(Cl)cn1[C@@H]1c2cc([N+](=O)[O-])ccc2OCC[C@H]1O (relative stereo)
120	O=[N+]([O-])c1c(Br)nc2ccc(Cl)cc2c1C(F)(F)F
108	CNC(=O)C1CCN(S(=O)(=O)c2ccc(Cl)c(COc3cccc4c(-n5ccnc5)cc(C)nc34)c2Cl)C1 (stereo unspecified)
325 to 337	Cc1nc(-c2ccc(C(F)(F)F)cc2)sc1C(=O)Nc1cc(Cl)ccc1-c1nnn[nH]1
82 to 83	Cc1ccccc1CCNC(=O)c1ccc(F)cc1
81	CCOC(=O)c1ccc(C2=CCCc3ccccc32)cc1
198 to 200	O=C(Oc1cc(OC(=O)c2ccccc2)c(C(=O)C=Cc2ccc(O)cc2)c(OC(=O)c2ccccc2)c1)c1ccccc1
193 to 194	NC(=O)c1nc(-c2cccc(N)c2)cs1
111 to 113	CC(=O)OCNC(=O)c1cc(C)c(C(c2cc(F)ccc2F)S(=O)(=O)c2ccc(F)cc2)cn1 (stereo unspecified)
177 to 179	CS(=O)(=O)c1ccc(CN2CC3(COc4cc5c(cc43)OCO5)c3ccccc32)o1 (stereo unspecified)
142 to 144	COc1ccc(C2=NN(CC(=O)c3ccc(Cl)cc3)C(=O)[C@H]3CCCC[C@@H]23)cc1OC (relative stereo)
189 to 190	CC12CCC(O)CC1=CCC1C2CCC2(C)C(n3cnc4ccccc43)=CCC12 (stereo unspecified)
158 to 161	CC(C)C[C@H](NC(=O)[C@H](Cc1c[nH]cn1)NC(=O)[C@H](Cc1cccc2ccccc12)NC(=O)OCc1ccccc1)[C@@H](O)CC(N)=O
48	CCCCc1ccc(OC)c(-c2csc(N)n2)c1
> 260	COc1ccc2cc3c(Nc4ccc(Cl)cc4Cl)c(C#N)cnc3cc2c1
210 to 211	CSc1nn2c(N)cc(C(C)C)nc2c1S(=O)(=O)c1ccccc1
77 to 78	CC(=NOCCO)c1ccc(S(=O)(=O)c2ccccc2)nc1
135	COc1ccc(C(=O)c2cccc3c2ccn3S(=O)(=O)c2ccc(C)cc2)cc1
228	O=C(Nc1cccc2c1C(=O)c1c-2n[nH]c1-c1ccc(C(=O)N2CCC(N3CCCC3)CC2)s1)NN1CCOCC1
252 to 254	O=C(Oc1ccc(-c2ccc(OC(=O)c3cc(O)c(Br)c(O)c3)cc2)cc1)c1ccc(O)c(O)c1
130 to 133	COc1ccc(-c2cncc(C#N)c2Nc2ccc3[nH]ccc3c2C)cc1OC
238 to 240	Nc1cccc2cc(C(=O)N3CCc4ccccc4C3)cnc12
100 to 102	CCN1c2ncc(CCCc3ccccc3)cc2C(=O)N(C)c2cccnc21

melting point [°C]	SMILES
248	N#Cc1ccc(NC(=O)c2cc3ccccc3cc2O)c(OC(F)(F)F)c1
170 to 171	O=S(=O)(Nc1ccc2c(OCc3ccc(-c4cccc(Cl)c4)cc3)cccc2c1)C(F)(F)F
82.8	O=C(c1ccccc1)N1CCOC(CCOS(=O)(=O)c2ccccc2)(c2ccc(F)c(F)c2)C1 (single isomer, unassigned; (+))
90 to 91	Clc1cc(CCc2ccccn2)c2oc(-c3cccs3)nc2c1
224 to 225	CC1(C)CC(=O)c2c(ncc3[nH]c4ccccc4c23)C1
172 to 173	CC(C)CC(=O)Nc1cccc(-c2ccnc3c(-c4ccc5c(c4)OCO5)cnn23)c1
129 to 131	COCCOCc1nn2c(-c3ccc(OC)cc3)nnc2c2ccccc12
266	CCOC(=O)C1=C(N)NC2=C(C(=O)CCC2)C1c1cccc(Cl)c1 (stereo unspecified)
45	Cc1cn(Nc2ccncc2F)c2ccccc12
155 to 156	c1ccc(CSc2nc3cc4c(cc3[nH]2)OCCO4)nc1
200	O=C1Nc2ccccc2SC1c1ccccc1Cl (stereo unspecified)
179	COc1ccc(C)cc1NC(=O)Nc1ccc(N2CCN(C(=O)Oc3ccccc3)CC2)cc1
164 to 165	CCOC(=O)c1n[nH]cc1-c1ccccc1
124 to 126	COC(=O)C(=O)c1ccccc1Nc1c(Cl)cccc1Cl
199 to 201	Cc1ccc(-c2nc(-c3ccc(C)cc3C)nc(-c3ccc(O)cc3O)n2)c(C)c1
150	COP(=O)(c1ccccc1)c1ccc2c(c1)C(NC(=NC#N)Nc1ccc(Cl)cc1)C(O)C(C)(C)O2 (stereo unspecified)
122 to 124	COC(=O)c1ccc(Cc2cn(C)c3ccc(CCNC(=O)N(C)C)cc23)c(OC)c1
287	CN(C)CCCNC(=O)c1ccc(/C=C/c2ccc3c(=O)[nH]ncc3c2)cc1
195 to 196	CC(C(N)=O)c1ccc2c(c1)C(=O)Cc1c(Cl)cccc1S2 (stereo unspecified)
200 to 202	N#CCCN1C(=O)C2(COc3cc4c(cc32)OCO4)c2ccccc21 (stereo unspecified)
135 to 139	CCNS(=O)(=O)c1nc2ccccc2n1CC
165 to 167	COc1ccccc1-n1c(=O)[nH]c2c(C(N)=O)nc(N[C@H]3CC[C@H](O)CC3)nc21
233 to 236	Nc1nc2c(c(Nc3cccc(Br)c3)n1)-c1ccccc1C2
93 to 96	CCCCCCCN(CCCCCSc1nc(-c2ccccc2)c(-c2ccccc2)[nH]1)C(=O)NC
101	COc1ccc(-c2nccc(C)c2OC2SCC(O)C(O)C2O)cc1 (stereo unspecified)
150 to 152	CN(c1cccc2cc(C(=O)NCC(C)(CN3CCOCC3)SCc3ccccc3)[nH]c12)S(=O)(=O)c1cccs1 (stereo unspecified)
